Assay results as given in US20250009707A1, “METHODS OF INDUCING KETOSIS IN NON-HUMAN MAMMALS” (BOPZ Nutrition Ltd., priority 2023, published 2025).

Legend:
[1] = Tolerability (emesis) in fasted canines, sublingual gavage (Example 1); format: in vivo; settings: 250 mg/kg
Procedure: Example 1 provides a method by which compounds of the disclosure were evaluated in a first study, wherein dogs were fasted and the compounds were administered by sublingual gavage.
In a first period, a group of 12 canines (beagles) were administered 5.5% MCT in a first period, and 250 mg/kg C8-BHB in a second period. A 7 day washout period was provided between the first and second periods.
The canines were fasted, and the C8-BHB or MCTs was administered by sublingual gavage.
(§1) In each of the first, second, third, and fourth period, pathology samples were taken prior to administration of the compound, then at minute 20, 60, 90, 120, 180, 240, and 300.
Where emesis occurred before 60 minutes from dosing, serum BHB content was not analyzed.
Where emesis occurred at or after 60 minutes from dosing and before 300 minutes from dosing, Cmax was calculated but AUC was not calculated.

[2] = Tolerability in fed canines, gastric gavage (Example 2); format: in vivo
Procedure: (§2) A group of 6 beagles was evaluated per tested compound of the disclosure. In a first period, the canines were administered 250 mg/kg of C8-BHB. In a second period, the canines were administered 500 mg/kg of C8-BHB. In a third period, the canines were administered MCT at a dose of 5.5%. In a fourth period, the canines were administered 125 mg/kg of C8-BHB. A washout period of 7 days was provided between each of the first, second, third, and fourth periods.
(§3) Following the tolerability results of Example 1, the canines were fed, and the compound was administered by gastric gavage in subsequent examples.
as §1
(§4) If emesis occurred 60 minutes from administration of the compound, serum BHB content was not analyzed.

[3] = Serum/plasma BHB in fed canines, gastric gavage (Examples 2-4); format: in vivo, canines (beagles); settings: 500 mg/kg
Procedure: Ketosis may be assessed quantitatively by measuring plasma beta-hydroxybutyrate (BHB) concentrations. Methods of measuring plasma BHB concentrations are known in the art. Non-limiting exemplary methods for measuring plasma BHB concentrations are provided in U.S. Pat. No. 10,562,839, which is hereby incorporated by reference in its entirety. Plasma BHB levels may be determined by a colorimetric enzymatic assay (Stanbio Laboratory 2440-058).
as §2, §3
In each of the first, second, third, and fourth period, serum was sampled prior to administration of the compound, then at minute 15, 30, 45, 60, 75, 90, 120, 180, 240, and 300. Serum was sampled for BHB analysis.
as §4
C8-BHB and C8×2-BD were selected as exemplary compounds of the disclosure for administration to canines according to the method of Example 2. Each exemplary compound was administered to 6 canines.
To further evaluate the potential of the compounds of the disclosure for inducing ketosis in canines, the compounds and MCTs were administered to the same canines, as described in Example 2.

Compound	Tolerability compared to MCTs (FIG. 1B) [1]	Tolerability compared to MCTs (FIGS. 2A-D) ([2]; fed canines, gastric gavage, doses of 125, 250 and 500 mg/kg)	Canines tolerating the substance ([2]; fed state, overall) [%]	BHB Cmax [3] [mM]	BHB Tmax [3] [min]
CCCCCCCC(=O)O[C@H](C)CC(=O)OCC [C8-BHB, octanoyl-ethyl-3-hydroxybutyrate]	better tolerated	improved tolerability	83	1.00	51
CCCCCCCC(=O)OCC[C@@H](C)OC(=O)CCCCCCC [C8×2-BD, bis-octanoyl-1,3-butanediol]	–	–	–	0.70	57
